Experimental data published in PubChem BioAssay (NCI).
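Cultured in 96-well plates, cells were exposed to test compound for 48 hours across five concentrations. TGI: total growth inhibition.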

Assays:
Experiment in all cases: NCI anticancer screen, dose series, 48 h
[1] = tested on: LOX IMVI melanoma
[2] = tested on: KM12 colon
[3] = tested on: TK-10 renal
[4] = tested on: NCI-H23 lung
[5] = tested on: SK-MEL-2 melanoma
[6] = tested on: OVCAR-4 ovarian
[7] = tested on: NCI/ADR-RES ovarian
[8] = tested on: IGROV1 ovarian
[9] = tested on: MDA-MB-435
[10] = tested on: MALME-3M melanoma
[11] = tested on: UO-31 renal
[12] = tested on: RPMI-8226 leukemia
[13] = tested on: HCT-15 colon
[14] = tested on: SN12C renal
[15] = tested on: UACC-257 melanoma
[16] = tested on: A498 renal
[17] = tested on: 786-0 renal
[18] = tested on: HOP-92 NSCLC
[19] = tested on: HS 578T breast
[20] = tested on: MDA-N
[21] = tested on: T-47D breast
[22] = tested on: HCC-2998 colon
[23] = tested on: UACC-62 melanoma
[24] = tested on: BT-549 breast
[25] = tested on: SK-MEL-5 melanoma
[26] = tested on: SF-268 CNS
[27] = tested on: K-562 leukemia
[28] = tested on: SW-620 colon
[29] = tested on: SF-295 CNS
[30] = tested on: DU-145 prostate
[31] = tested on: HT29 colon
[32] = tested on: MCF7 breast
[33] = tested on: SR leukemia
[34] = tested on: SK-MEL-28 melanoma
[35] = tested on: COLO 205 colon
[36] = tested on: HCT-116 colon
[37] = tested on: NCI-H226 lung
[38] = tested on: MDA-MB-231 breast
[39] = tested on: A549 NSCLC
[40] = tested on: SK-OV-3 ovarian
[41] = tested on: CAKI-1 renal
[42] = tested on: NCI-H522 lung
[43] = tested on: OVCAR-8 ovarian
[44] = tested on: NCI-H460 lung
[45] = tested on: PC-3 prostate
[46] = tested on: SNB-19 CNS
[47] = tested on: SNB-75 CNS
[48] = tested on: SF-539 CNS
[49] = tested on: U251 CNS
[50] = tested on: ACHN renal
[51] = tested on: HL-60(TB) leukemia
[52] = tested on: M14 melanoma
[53] = tested on: MOLT-4 leukemia
[54] = tested on: CCRF-CEM leukemia
[55] = tested on: OVCAR-5 ovarian
[56] = tested on: HOP-62 NSCLC
[57] = tested on: EKVX NSCLC
[58] = tested on: OVCAR-3 ovarian
[59] = tested on: RXF 393 renal

SMILES: C=CCN(c1cc(OC)c2c(c1[N+](=O)[O-])C(C)(SC)C(=O)N2)S(C)(=O)=O (stereo not drawn)
- TGI [1]: > 100 µM
- TGI [2]: > 100 µM
- TGI [3]: > 100 µM
- TGI [4]: > 100 µM
- TGI [5]: > 100 µM
- TGI [6]: > 100 µM
- TGI [7]: > 100 µM
- TGI [8]: > 100 µM
- TGI [9]: > 100 µM
- TGI [10]: > 100 µM
- TGI [11]: > 100 µM
- TGI [12]: > 100 µM
- TGI [13]: > 100 µM
- TGI [14]: > 100 µM
- TGI [15]: > 100 µM
- TGI [16]: > 100 µM
- TGI [17]: > 100 µM
- TGI [18]: > 100 µM
- TGI [19]: > 100 µM
- TGI [20]: > 100 µM
- TGI [21]: > 100 µM
- TGI [22]: > 100 µM
- TGI [23]: > 100 µM
- TGI [24]: > 100 µM
- TGI [25]: > 100 µM
- TGI [26]: > 100 µM
- TGI [27]: > 100 µM
- TGI [28]: > 100 µM
- TGI [29]: > 100 µM
- TGI [30]: > 100 µM
- TGI [31]: > 100 µM
- TGI [32]: > 100 µM
- TGI [33]: > 100 µM
- TGI [34]: > 100 µM
- TGI [35]: > 100 µM
- TGI [36]: > 100 µM
- TGI [37]: > 100 µM
- TGI [38]: > 100 µM
- TGI [39]: > 100 µM
- TGI [40]: > 100 µM
- TGI [41]: > 100 µM
- TGI [42]: > 100 µM
- TGI [43]: > 100 µM
- TGI [44]: > 100 µM
- TGI [45]: > 100 µM
- TGI [46]: > 100 µM
- TGI [47]: > 100 µM
- TGI [48]: > 100 µM
- TGI [49]: > 100 µM
- TGI [50]: > 100 µM

SMILES: CCCCn1c(C)c2c(c1C)C(=O)N(CCN1CCN(c3ccccc3Cl)CC1)C2=O
- TGI [51]: 51 µM
- TGI [1]: 30.1 µM
- TGI [2]: > 100 µM
- TGI [3]: > 100 µM
- TGI [4]: 85.4 µM
- TGI [5]: 49 µM
- TGI [6]: > 100 µM
- TGI [52]: 51.5 µM
- TGI [7]: > 100 µM
- TGI [8]: > 100 µM
- TGI [9]: 90.3 µM
- TGI [10]: 50.2 µM
- TGI [53]: 52.2 µM
- TGI [11]: 43.3 µM
- TGI [12]: 55.1 µM
- TGI [54]: 75.7 µM
- TGI [13]: > 100 µM
- TGI [14]: 61.3 µM
- TGI [15]: 74.3 µM
- TGI [55]: > 100 µM
- TGI [16]: > 100 µM
- TGI [18]: 68.5 µM
- TGI [19]: > 100 µM
- TGI [20]: > 100 µM
- TGI [56]: 93.3 µM
- TGI [21]: 75 µM
- TGI [22]: 72.5 µM
- TGI [23]: > 100 µM
- TGI [24]: 41.7 µM
- TGI [25]: 34.9 µM
- TGI [26]: 32.4 µM
- TGI [27]: 92.1 µM
- TGI [28]: > 100 µM
- TGI [57]: > 100 µM
- TGI [29]: > 100 µM
- TGI [30]: > 100 µM
- TGI [31]: 31 µM
- TGI [32]: 99 µM
- TGI [33]: 58.7 µM
- TGI [35]: > 100 µM
- TGI [36]: 34.3 µM
- TGI [37]: > 100 µM
- TGI [38]: > 100 µM
- TGI [39]: > 100 µM
- TGI [40]: > 100 µM
- TGI [41]: > 100 µM
- TGI [42]: 78.7 µM
- TGI [43]: > 100 µM
- TGI [44]: > 100 µM
- TGI [45]: 79.5 µM
- TGI [46]: > 100 µM
- TGI [47]: 90.2 µM
- TGI [48]: 38 µM
- TGI [49]: > 100 µM
- TGI [50]: > 100 µM
- TGI [58]: > 100 µM

SMILES: CN(C)c1c(C2CC(O)C(CO)O2)c(=O)c1=O (stereo not drawn)
- TGI [51]: > 100 µM
- TGI [1]: > 100 µM
- TGI [2]: > 100 µM
- TGI [3]: > 100 µM
- TGI [5]: > 100 µM
- TGI [6]: > 100 µM
- TGI [52]: > 100 µM
- TGI [7]: > 100 µM
- TGI [8]: > 100 µM
- TGI [9]: > 100 µM
- TGI [53]: > 100 µM
- TGI [11]: > 100 µM
- TGI [12]: > 100 µM
- TGI [13]: > 100 µM
- TGI [14]: > 100 µM
- TGI [15]: > 100 µM
- TGI [55]: > 100 µM
- TGI [16]: > 100 µM
- TGI [17]: > 100 µM
- TGI [18]: > 100 µM
- TGI [19]: > 100 µM
- TGI [20]: > 100 µM
- TGI [56]: > 100 µM
- TGI [21]: > 100 µM
- TGI [22]: > 100 µM
- TGI [23]: > 100 µM
- TGI [24]: > 100 µM
- TGI [26]: > 100 µM
- TGI [27]: > 100 µM
- TGI [28]: > 100 µM
- TGI [57]: > 100 µM
- TGI [29]: > 100 µM
- TGI [30]: > 100 µM
- TGI [31]: > 100 µM
- TGI [32]: > 100 µM
- TGI [33]: > 100 µM
- TGI [34]: > 100 µM
- TGI [36]: > 100 µM
- TGI [37]: > 100 µM
- TGI [38]: > 100 µM
- TGI [39]: > 100 µM
- TGI [40]: > 100 µM
- TGI [42]: > 100 µM
- TGI [43]: > 100 µM
- TGI [44]: > 100 µM
- TGI [45]: > 100 µM
- TGI [46]: > 100 µM
- TGI [47]: > 100 µM
- TGI [48]: > 100 µM
- TGI [49]: > 100 µM
- TGI [50]: > 100 µM
- TGI [58]: > 100 µM

SMILES: O=C1NC(N2CCCCC2)=N/C1=C\c1ccccc1
- TGI [51]: > 100 µM
- TGI [1]: > 100 µM
- TGI [2]: > 100 µM
- TGI [3]: > 100 µM
- TGI [4]: > 100 µM
- TGI [5]: > 100 µM
- TGI [6]: > 100 µM
- TGI [52]: > 100 µM
- TGI [7]: > 100 µM
- TGI [8]: > 100 µM
- TGI [9]: > 100 µM
- TGI [10]: > 100 µM
- TGI [53]: > 100 µM
- TGI [11]: > 100 µM
- TGI [12]: > 100 µM
- TGI [54]: > 100 µM
- TGI [13]: > 100 µM
- TGI [14]: > 100 µM
- TGI [15]: > 100 µM
- TGI [55]: > 100 µM
- TGI [17]: > 100 µM
- TGI [18]: > 100 µM
- TGI [19]: > 100 µM
- TGI [20]: > 100 µM
- TGI [56]: > 100 µM
- TGI [21]: > 100 µM
- TGI [22]: > 100 µM
- TGI [23]: > 100 µM
- TGI [24]: > 100 µM
- TGI [26]: > 100 µM
- TGI [28]: > 100 µM
- TGI [59]: > 100 µM
- TGI [57]: > 100 µM
- TGI [29]: > 100 µM
- TGI [30]: > 100 µM
- TGI [31]: > 100 µM
- TGI [32]: > 100 µM
- TGI [33]: > 100 µM
- TGI [34]: > 100 µM
- TGI [35]: > 100 µM
- TGI [36]: > 100 µM
- TGI [37]: > 100 µM
- TGI [38]: > 100 µM
- TGI [39]: > 100 µM
- TGI [40]: > 100 µM
- TGI [41]: > 100 µM
- TGI [42]: > 100 µM
- TGI [43]: > 100 µM
- TGI [45]: > 100 µM
- TGI [46]: > 100 µM
- TGI [47]: > 100 µM
- TGI [48]: > 100 µM
- TGI [49]: > 100 µM
- TGI [50]: > 100 µM
- TGI [58]: > 100 µM
